Laboratory results reported in patent US20150051387A1, “WATER SOLUBLE PLATINUM COMPLEXES FOR TUMOR TREATMENT AND PROCESS OF PREPARING SAME” (GUDUI BIOPHARMA TECHNOLOGY INC., priority 2011, published 2015).

Tests used:
L1210 tumor cells = assay: Antitumor efficacy in L1210 leukemia-bearing CDF1 mice (Experiment-2); assay type: in vivo; conditions: for Weight Changes: first day to seventh day
Method: In the following test, antitumor efficacy studies were performed using 8-9 weeks old female CDF1 mice, the average weight of the animal is 20-25 grams. L1210 tumor cells (about 10^5 cells per mouse) were inoculated intraperitoneally. The water-soluble platinum complexes were used to treat the tumor-bearing animals and the efficacy was compared compared with the clinical platinum antitumor drugs. […] Drugs were administered intraperitoneally on day 1 and day 4 after tumor cell transplantation. The number of experimental animals in each group was 6.
The experimental animals were purchased from Vital River Laboratory Animal Technology Co. Ltd., Tumor cells L1210-leukemia cells were purchased from Shanghai An Yan Commercial Trade Co. Ltd.
The increase in life span (ILS) is calculated as follows:
Wherein, St=the weighted median survival time of treated animals; Su=the weighted median survival time of untreated animals

[1] = Solubility in water at room temperature (Experiment-1)
[2] = 1.25 mg/Kg i.p. day 1 and day 4

## N.N.[Cl][Pt][Cl] [Cisplatin, cisplatin]
L1210 tumor cells; [2]
  Survival Animals on Day 42: 0/6
  Weight Changes: +1.1 g
L1210 tumor cells; 2.5 mg/Kg i.p. day 1 and day 4
  Survival Animals on Day 42: 1/6
  Weight Changes: -0.6 g
L1210 tumor cells; 5.0 mg/Kg i.p. day 1 and day 4
  Survival Animals on Day 42: 3/6
  Weight Changes: -2.2 g

## N.N.O=C([O-])C1(C(=O)[O-])CCC1.[Pt+2] [Carboplatin, carboplatin]
L1210 tumor cells; 24 mg/Kg i.p. day 1 and day 4
  Survival Animals on Day 42: 0/6
  Weight Changes: +0.6 g
L1210 tumor cells; 40 mg/Kg i.p. day 1 and day 4
  Survival Animals on Day 42: 0/6
  Weight Changes: -0.4 g
L1210 tumor cells; 80 mg/Kg i.p. day 1 and day 4
  Survival Animals on Day 42: 1/6
  Weight Changes: -1.2 g
[1]
  solubility: 16.6 mg/1 mL H2O

## cis-[trans-(1R,2R)-diamino cyclohexane] Pt (II) (1-O-D-glucoside-propane-3-chloro-3,3-dicarboxylate) [Example 1]
L1210 tumor cells; 50 mg/Kg i.p. day 1 and day 4
  ILS: >425%
  Survival Animals on Day 42: 6/6
  Weight Changes: +1.1 g
L1210 tumor cells; 100 mg/Kg i.p. day 1 and day 4
  ILS: >425%
  Survival Animals on Day 42: 6/6
  Weight Changes: +0 g
L1210 tumor cells; 200 mg/Kg i.p. day 1 and day 4
  ILS: >425%
  Survival Animals on Day 42: 6/6
  Weight Changes: -0.4 g
